Test results from patent US20250171452A1 (Viscient Bio, Inc., priority 2022, published 2025).
Read-outs that look alike come from different tables or passages of the source.

Assays:
[1] = biological target: Indoleamine 2,3-dioxygenase 1 (IDO1) (Homo sapiens (Human), UniProt P14902); experiment: Cellular IDO1 assay: kynurenine production in IFN-γ-stimulated HeLa cells, colorimetric
IDO2 = IDO2 (Homo sapiens (Human), UniProt Q6ZQW0); experiment: Cellular IDO2 assay, doxycycline and 5-methoxy-L-tryptophan medium, colorimetric; format: cell-based
[2] = cellular level, 72 h incubation, signal at 480 nm

Indoleamine 2,3-dioxygenase 1 (IDO1), sequence (P14902 whole entry): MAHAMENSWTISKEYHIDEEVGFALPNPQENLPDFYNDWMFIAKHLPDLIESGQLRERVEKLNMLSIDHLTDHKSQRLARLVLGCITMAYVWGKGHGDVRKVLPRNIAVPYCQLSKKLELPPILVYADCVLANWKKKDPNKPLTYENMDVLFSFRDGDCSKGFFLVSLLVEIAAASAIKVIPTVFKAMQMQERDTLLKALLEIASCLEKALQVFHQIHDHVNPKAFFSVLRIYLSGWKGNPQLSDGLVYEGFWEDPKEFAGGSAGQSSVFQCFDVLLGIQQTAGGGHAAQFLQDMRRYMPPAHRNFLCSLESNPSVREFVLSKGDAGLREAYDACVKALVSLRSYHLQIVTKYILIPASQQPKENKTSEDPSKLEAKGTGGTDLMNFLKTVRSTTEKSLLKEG
IDO2, sequence (Q6ZQW0 whole entry, species assumed): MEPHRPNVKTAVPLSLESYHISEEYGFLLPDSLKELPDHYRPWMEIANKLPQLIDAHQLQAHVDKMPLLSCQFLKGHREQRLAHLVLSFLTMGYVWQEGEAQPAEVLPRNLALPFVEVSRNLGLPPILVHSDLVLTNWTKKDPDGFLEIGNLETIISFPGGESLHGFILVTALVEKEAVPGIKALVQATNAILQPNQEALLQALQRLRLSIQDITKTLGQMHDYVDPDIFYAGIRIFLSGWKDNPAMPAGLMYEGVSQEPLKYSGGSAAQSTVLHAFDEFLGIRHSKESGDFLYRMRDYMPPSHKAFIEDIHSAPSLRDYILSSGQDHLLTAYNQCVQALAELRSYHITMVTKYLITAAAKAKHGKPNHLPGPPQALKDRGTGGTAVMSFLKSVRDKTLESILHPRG

Structure (SMILES)	IC50 [1] [nM]	IC50 (IDO2; [2]) [nM]	IC50 (IDO2) [nM]
O=C1c2cc(S(=O)(=O)Cc3ccccc3)ccc2-n2c1nc1cc(F)ccc1c2=O [Compound 33, 8-(Benzylsulfonyl)-3-fluoroindolo[2,1-b]quinazoline-6,12-dione]	< 50	< 50	–
O=C1c2cc([N+](=O)[O-])ccc2-n2c1nc1c(Cl)cccc1c2=O [Compound 36, 4-Chloro-8-nitroindolo[2,1-b]quinazoline-6,12-dione]	50 to 500	< 50	–
O=C1c2cc([N+](=O)[O-])ccc2-n2c1nc1cccc(F)c1c2=O [Compound 37, 1-Fluoro-8-nitroindolo[2,1-b]quinazoline-6,12-dione]	< 50	–	< 50
O=c1c2c(Cl)cccc2[nH]c2cc3cc([N+](=O)[O-])ccc3n12 [Compound 39, 1-Chloro-8-nitroindolo[2,1-b]quinazolin-12(5H)-one]	50 to 500	< 50	–
Cc1ccc(F)c2c(=O)n3c(nc12)C(=O)c1cc([N+](=O)[O-])ccc1-3 [Compound 40]	50 to 500	50 to 500	–
O=C1c2cc(F)ccc2-n2c1nc1c(Br)cccc1c2=O [Compound 44, 4-Bromo-8-fluoroindolo[2,1-b]quinazoline-6,12-dione]	50 to 500	< 50	–
O=C1c2cc([N+](=O)[O-])ccc2-n2c1nc1c(Br)cc(Cl)cc1c2=O [Compound 47, 4-Bromo-2-chloro-8-nitroindolo[2,1-b]quinazoline-6,12-dione]	> 500	50 to 500	–
Cc1cc(C)c2nc3n(c(=O)c2c1)-c1ccc([N+](=O)[O-])cc1C3=O [Compound 48, 2,4-Dimethyl-8-nitroindolo[2,1-b]quinazoline-6,12-dione]	< 50	< 50	–
Cc1cc(F)cc2c(=O)n3c(nc12)C(=O)c1cc([N+](=O)[O-])ccc1-3 [Compound 49, 2-Fluoro-4-methyl-8-nitroindolo[2,1-b]quinazoline-6,12-dione]	50 to 500	< 50	–
O=C1c2cc([N+](=O)[O-])ccc2-n2c1nc1c(Br)c(Cl)ccc1c2=O [Compound 50, 4-Bromo-3-chloro-8-nitroindolo[2,1-b]quinazoline-6,12-dione]	> 500	50 to 500	–
O=C1c2cc([N+](=O)[O-])ccc2-n2c1nc1cnc(O)cc1c2=O [Compound 51, 3-Hydroxy-9-nitropyrido[3′,4′:4,5]pyrimido[1,2-a]indole-5,11-dione]	> 500	50 to 500	–

Further lines, with some results ahead:

IC50 [1] [nM]	IC50 (IDO2; [2]) [nM]	Structure (SMILES)	IC50 (IDO2) [nM]
50 to 500	< 50	N#Cc1ccc2c(c1)C(O)C1Nc3cc(F)ccc3C(=O)N21 (stereo not drawn) [Compound 31, 3-Fluoro-6-hydroxy-12-oxo-5,5a,6,12-tetrahydroindolo[2,1-b]quinazoline-8-carbonitrile]	–
50 to 500	50 to 500	O=C1c2c(F)cc(F)cc2NC2C(O)c3cc([N+](=O)[O-])ccc3N12 (stereo not drawn) [Compound 32, 1,3-Difluoro-6-hydroxy-8-nitro-5a,6-dihydroindolo[2,1-b]quinazolin-12(5H)-one]	–
> 500	50 to 500	O=c1c2c(F)cc(F)cc2nc2n1-c1ccc([N+](=O)[O-])cc1C2 [Compound 34, 1,3-Difluoro-8-nitroindolo[2,1-b]quinazolin-12(6H)-one]	–
50 to 500	< 50	O=C1c2cc([N+](=O)[O-])ccc2-n2c1nc1c(Br)c(F)ccc1c2=O [Compound 35]	–
< 50	< 50	Cc1cccc2nc3n(c(=O)c12)-c1ccc([N+](=O)[O-])cc1C3=O [Compound 38, 1-Methyl-8-nitroindolo[2,1-b]quinazoline-6,12-dione]	–
50 to 500	< 50	O=C1c2cc([N+](=O)[O-])ccc2-n2c1nc1c(F)cccc1c2=O [Compound 41, 4-Fluoro-8-nitroindolo[2,1-b]quinazoline-6,12-dione]	–
< 50	< 50	Cc1cccc2c(=O)n3c(nc12)C(=O)c1cc([N+](=O)[O-])ccc1-3 [Compound 42, 4-Methyl-8-nitroindolo[2,1-b]quinazoline-6,12-dione]	–
50 to 500	< 50	O=C1c2cc([N+](=O)[O-])ccc2-n2c1nc1c(Br)cccc1c2=O [Compound 43, 4-Bromo-8-nitroindolo[2,1-b]quinazoline-6,12-dione]	–
50 to 500	50 to 500	O=C1c2cc([N+](=O)[O-])ccc2-n2c1nc1c(Br)cc(F)cc1c2=O [Compound 45, 4-Bromo-2-fluoro-8-nitroindolo[2,1-b]quinazoline-6,12-dione]	–
50 to 500	< 50	N#Cc1ccc2c(c1)C(=O)c1nc3c(Br)cccc3c(=O)n1-2 [Compound 46, 4-bromo-6,12-dioxo-6,12-dihydroindolo[2,1-b]quinazoline-8-carbonitrile]	–
